Experimental data from patent EP0456792B1, “IMPROVED SYSTEM FOR THE TRANSDERMAL APPLICATION OF PHARMACOLOGICALLY ACTIVE COMPOUNDS AT CONTROLLED pH” (Boehringer Ingelheim International GmbH, priority 1989, dated 1991).
“And” between values parts separate entries of the source, which are not always exact repeats. Equal entries are not always repeated.

What was measured:
[1] = Flux rate of Clenbuterol through the skin as a function of the skin surface pH (Fig. 9); format: in vitro ADME, Mensch
Excerpt: Überraschenderweise wurde nun festgestellt, daß bei einer transdermalen Applikation von Clenbuterol die Fluxrate für den Wirkstoff entscheidend verbessert werden kann, wenn der pH-Wert der Hautoberfläche auf einen Wert konstant zwischen 6,0 und 8,5 gehalten wird.
Die Fluxrate eines Wirkstoffes durch die Haut ist definiert als Menge des Wirkstoffes pro Hautoberfläche und pro Zeiteinheit und wird üblicherweise in [µg/cm^2 . h] angegeben. In dem oben angegebenen pH-Bereich erreicht die Fluxrate für Clenbuterol ihr Maximum, während bei höheren und niederen pH-Werten die Fluxrate stark abnimmt.
Der pH-Wert der Hautoberfläche ist beim Menschen individuell und temporär verschieden. Ein als Standard angenommener pH-Wert von […] bis 6,0 schwankt im Individualfall zwischen pH 4,5 und 8,0 und hängt von vielen unterschiedlichen Faktoren ab. Schwankungen des pH-Wertes können daneben zum einen durch das Pflaster selbst und zum anderen durch den Wirkstoff hervorgerufen werden. Wie aus der Abb. I ersichtlich ist, nimmt die Fluxrate von Clenbuterol außerhalb des angegebenen pH-Bereichs drastisch ab, so daß eine ausreichende Permeabilität der Haut für Clenbuterol nicht mehr gewährleistet ist.
In Fig. 9 ist die Permeabilität P von Clenbuterol durch die menschliche Haut aufgetragen (Funktion A); P ist angegeben in [cm/sec]. […]

[2] = Permeability of pH-modified Clenbuterol CPA through human skin, Franz cell; format: in vitro ADME, Mensch; details: Zelle 1-3 are replicates
Protocol: Permeabilität von pH-Wort modifiziertem Clenbuterol CPA durch Humanhaut:
Zusammensetzung der CPA's:
Als Freigabeapparatur wurde eine Franz-Zelle verwendet. Dies ist eine übliche Methode, um die Abgabe von Arzneistoffen aus pharmazeutischen Formulierungen zu testen. Proben wurden nach 24 h bzw. 48h entnommen und der Gehalt an Clenbuterol bestimmt.

[3] = CPA pH-Wert 3.5 (5 % Clenbuterol, 5 % Zitronensäure, 90 % Eudragit E 30 D)
[4] = CPA pH-Wert 10.0 (5 % Clenbuterol, 5 % Na2CO3, 90 % Eudragit E 30 D)

For `CC(C)(C)NCC(O)c1cc(Cl)c(N)c(Cl)c1` (stereo not drawn) [Clenbuterol], the Fluxrate ([1]; at pH values higher and lower than the range 6,0 to 8,5) was “stark abnimmt”, the Fluxrate ([1]; skin surface pH between 6,0 and 8,5) was “Maximum” and the “Clenbuterol Diffusion nach 24 h” value [2, 3] was 3.48 µg/cm^2 and 0.65 µg/cm^2 and 2.64 µg/cm^2. For the same compound, the “Clenbuterol Diffusion nach 48 h” value [2, 3] was 5.52 µg/cm^2 and 1.69 µg/cm^2 and 6.04 µg/cm^2, the “Clenbuterol Diffusion nach 24 h” value [2, 4] was 7.8 µg/cm^2 and 11.44 µg/cm^2 and 9.84 µg/cm^2 and the “Clenbuterol Diffusion nach 48 h” value [2, 4] was 21.7 µg/cm^2 and 27.3 µg/cm^2 and 24.2 µg/cm^2.
